Data: patent publication US12441739B2, “Glucagon receptor antagonist and use thereof” (LANZHOU UNIVERSITY, priority 2021, dated 2025)
Several values for one entry are separate records, joined by “and”; a condition that tells them apart may be missing. Equal values may be shown once.

Target: T1, human glucagon receptor (hGCGR) (Homo sapiens, UniProt P47871)
T1 construct: host or cells: HEK293
Test: HTRF second messenger cAMP response experiment (called cell viability test) in HEK293 cells with glucagon peptide segment
Assay type: cell-based
Conditions: for inhibitory activity of glucagon receptor (in words, from cAMP response curves): FIG. 5 / FIG. 14
Procedure: In order to determine the antagonistic activity of the compound A on the glucagon receptor in the above embodiments, a cell viability test is carried out. The specific implementation is as follows.
A known human glucagon receptor (hGCGR) antagonist drug is selected as a positive control, and the compound A in the above embodiments, a glucagon peptide segment (that is, human full-length glucagon), and human embryonic kidney cells containing target receptor molecules are mixed. The glucagon peptide segment binds to hGCGR to activate the hGCGR signaling pathway and release the second messenger cAMP. The compound A acts as an antagonist to inhibit the activity of hGCGR.
In an exemplary embodiment, a known hGCGR antagonist drug (L-168,049) is selected as a positive control. […] In addition, in view of the human glucagon receptor on the cell membrane of human embryonic kidney cells HEK293, HEK293 is used to test the drug activity of the human glucagon antagonist. In this embodiment, different concentrations of compound A of the present disclosure and the positive control are respectively mixed with glucagon peptide segments and HEK293 cells, the second messenger cAMP is detected through homogeneous time resolved fluorescence (HTRF), and a half maximal inhibitory concentration value of each compound is calculated according to the intensity value of HTRF.
(§1) In an exemplary embodiment, the activity of the compound A is tested using the HTRF technique. Specifically, after activation of the glucagon receptor by the glucagon peptide segment, the second messenger cAMP is released from the glucagon receptor cells, the second messenger cAMP may be detected by HTRF, and the half maximal inhibitory concentration (IC50) of the tested compound may be calculated according to the fluorescence intensity.
In an exemplary embodiment, 11 identical concentration gradients are set for the compounds A1 and A2 respectively. The activities of the compounds A1 and A2 are determined by the HTRF second messenger cAMP response experiment in triplicate.
Step S910. Select an antagonist drug of hGCGR as a positive control, and mix each target drug small molecule, a glucagon peptide segment, and human embryonic kidney cells containing the target receptor molecule. The glucagon peptide segment binds to hGCGR to activate the hGCGR signaling pathway and release the second messenger cAMP. The target drug molecule acts as an antagonist to inhibit the activity of hGCGR.
In an exemplary embodiment, an antagonist drug (such as L-168,049) of hGCGR is selected as a positive control. In addition, in view of the human glucagon receptor on the cell membrane of human embryonic kidney cells (such as HEK293), HEK293 may be used to test the drug activity of the human glucagon antagonist. The target drug small molecule, the glucagon peptide segment, and the HEK293 cells containing the target receptor molecule are mixed. The glucagon peptide segment is used to bind to hGCGR to activate the hGCGR signaling pathway and promote the release of the second messenger cAMP. The target drug molecule acts as an antagonist to inhibit the activity of hGCGR.
Step S920. Detect the second messenger cAMP through HTRF, and determine a half maximal inhibitory concentration value of each target drug small molecule according to an intensity value of HTRF.
as §1, with “each target drug small molecule (such as 30 target drug small molecules shown in Table 2)” for “the compound A”, “tested by” for “tested”, “drug molecule” for “tested compound”, “intensity. […]” for “intensity.”

[1] = concentration gradient LogM −5.477121, HEK293 cells, glucagon peptide segment, HTRF cAMP, triplicate columns
[2] = concentration gradient LogM −8.339849, HEK293 cells, glucagon peptide segment, HTRF cAMP, triplicate columns
[3] = concentration gradient LogM −9.294091, HEK293 cells, glucagon peptide segment, HTRF cAMP, triplicate columns
[4] = concentration gradient LogM −6.908485, HEK293 cells, glucagon peptide segment, HTRF cAMP, triplicate columns
[5] = concentration gradient LogM −7.862728, HEK293 cells, glucagon peptide segment, HTRF cAMP, triplicate columns
[6] = concentration gradient LogM −5.954243, HEK293 cells, glucagon peptide segment, HTRF cAMP, triplicate columns
[7] = concentration gradient LogM −5, HEK293 cells, glucagon peptide segment, HTRF cAMP, triplicate columns

T1 sequence (P47871 26-477): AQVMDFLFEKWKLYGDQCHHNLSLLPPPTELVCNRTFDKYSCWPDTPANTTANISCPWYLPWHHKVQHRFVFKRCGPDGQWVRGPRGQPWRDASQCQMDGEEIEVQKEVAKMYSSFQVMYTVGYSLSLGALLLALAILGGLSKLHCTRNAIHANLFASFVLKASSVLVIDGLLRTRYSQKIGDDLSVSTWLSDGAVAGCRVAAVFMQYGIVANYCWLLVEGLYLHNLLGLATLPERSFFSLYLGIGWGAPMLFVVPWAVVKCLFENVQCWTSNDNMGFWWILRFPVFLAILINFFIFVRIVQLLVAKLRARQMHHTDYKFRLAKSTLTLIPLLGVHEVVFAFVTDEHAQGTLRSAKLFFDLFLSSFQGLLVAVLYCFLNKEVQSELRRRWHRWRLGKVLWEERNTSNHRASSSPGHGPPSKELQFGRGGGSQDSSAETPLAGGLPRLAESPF

NS(=O)(=O)c1ccc(NC(=S)NNC(=S)NC2CCCCC2)cc1 [Compound C1]
IC50: > 10 µM
Inhibition percentage [1]: −14.4564% and −9.717% and −14.5956%
Inhibition percentage [2]: 23.36% and 11.78% and 18.98%

O=S(=O)(NCCc1ccccc1)c1ccc(NC(=S)Nc2ccccc2)cc1 [Compound C2]
IC50: > 10 µM
Inhibition percentage [3]: 1.325% and 0.8006% and 5.407%

COc1ccc(C(=O)NC(=S)Nc2ccc(NC(=S)NC(C)=O)cc2)cc1Cl [Compound C3]
IC50: > 10 µM
Inhibition percentage [4]: 5.05% and 4.705% and 12.02%

O=S(=O)(Nc1ccc(Cl)cc1)c1ccc(NC(=S)Nc2ccccc2)cc1 [Compound C4]
IC50: > 10 µM

O=C(NCCCCCCNC(=O)NCc1cccnc1)NCc1cccnc1 [Compound C5]
IC50: > 10 µM

O=C(CCCCC(=O)NNC(=S)Nc1ccc(Br)cc1)NNC(=S)Nc1ccc(Br)cc1 [Compound C6]
IC50: > 10 µM
Inhibition percentage [5]: −28.7792% and −19.4453% and −24.9236%

O=C(NNC(=S)Nc1ccccc1)[C@H](O)[C@@H](O)C(=O)NNC(=S)Nc1ccccc1 [Compound C7]
IC50: > 10 µM
Inhibition percentage [5]: −25.3779% and −25.5195% and −24.1306%
Inhibition percentage [3]: −8.847% and −15.2446% and −18.5536%

CCC(=O)NC(=S)Nc1ccc(NC(=S)NC(=O)c2ccccc2OC)cc1 [Compound C8]
IC50: > 10 µM

CCC(=O)NC(=S)Nc1ccc(NC(=S)NC(=O)c2cccc(OC)c2)cc1 [Compound C9]
IC50: > 10 µM
Inhibition percentage (concentration gradient LogM −7.385606, HEK293 cells, glucagon peptide segment, HTRF cAMP, triplicate columns): 3.734% and −2.05% and −2.9843%
Inhibition percentage (concentration gradient LogM −8.81697, HEK293 cells, glucagon peptide segment, HTRF cAMP, triplicate columns): 8.521% and 5.537% and 14.34%

CN1C(=O)Cc2cc(S(=O)(=O)CCC(=O)NCCc3ccccc3)ccc21 [Compound C10]
IC50: > 10 µM
Inhibition percentage [6]: 1.692% and 1.059% and 6.715%
Inhibition percentage [4]: −33.073% and −31.3707% and −29.8413%

CC(=O)c1ccccc1NC(=O)c1c(O)c2c3c(sc2[nH]c1=O)C[C@H](C)CC3 [Compound C11]
IC50: > 10 µM
Inhibition percentage [7]: 21.46% and 27.01% and 27.99%
Inhibition percentage [2]: 11.37% and 16.25% and 12.52%

COc1cc(/C=N/NC(=O)CN2C(=O)N[C@H]3NC(=O)N[C@@H]32)cc(OC)c1O [Compound C12]
IC50: > 10 µM

COc1ccc(NC(=O)c2c(O)c3c4c(sc3[nH]c2=O)C[C@@H](C)CC4)cc1Cl [Compound C13, (7S)—N-(3-chloro-4-methoxyphenyl)-4-hydroxy-7-methyl-2-oxo-5,6,7,8-tetrahydro-1H-[1]benzothiolo[2,3-b]pyridine-3-carboxamide]
IC50: 0.446 µM
inhibitory activity of glucagon receptor (in words, from cAMP response curves): have the activity
inhibitory activity of glucagon receptor (in words, from cAMP response curves) (listed as A1): good inhibitory activity of glucagon receptor
Inhibition percentage [7]: 98.37% and 95.2799% and 96.15%
Inhibition percentage (concentration gradient LogM −5, triplicate, HEK293, cAMP HTRF, listed as A1): 98.37 percentage and 95.2799 percentage and 96.15 percentage
Inhibition percentage [1]: 87.84% and 83.28% and 83.51%
Inhibition percentage (concentration gradient LogM −5.477121, triplicate, HEK293, cAMP HTRF, listed as A1): 87.84 percentage and 83.28 percentage and 83.51 percentage
Inhibition percentage [6]: 75.44% and 83.24% and 79.3%
Inhibition percentage (concentration gradient LogM −5.954243, triplicate, HEK293, cAMP HTRF, listed as A1): 75.44 percentage and 83.24 percentage and 79.3 percentage
Inhibition percentage [5]: 7.62% and −2.135% and −0.781%
